The results in this text go back to patent US11691972B2, “Compounds for targeted degradation of BRD9” (C4 Therapeutics, Inc., priority 2020, dated 2023).

For the first test, the target named is T1, BRD9 (Homo sapiens, UniProt Q9H8M2).
T1 sequence (Q9H8M2 1-597): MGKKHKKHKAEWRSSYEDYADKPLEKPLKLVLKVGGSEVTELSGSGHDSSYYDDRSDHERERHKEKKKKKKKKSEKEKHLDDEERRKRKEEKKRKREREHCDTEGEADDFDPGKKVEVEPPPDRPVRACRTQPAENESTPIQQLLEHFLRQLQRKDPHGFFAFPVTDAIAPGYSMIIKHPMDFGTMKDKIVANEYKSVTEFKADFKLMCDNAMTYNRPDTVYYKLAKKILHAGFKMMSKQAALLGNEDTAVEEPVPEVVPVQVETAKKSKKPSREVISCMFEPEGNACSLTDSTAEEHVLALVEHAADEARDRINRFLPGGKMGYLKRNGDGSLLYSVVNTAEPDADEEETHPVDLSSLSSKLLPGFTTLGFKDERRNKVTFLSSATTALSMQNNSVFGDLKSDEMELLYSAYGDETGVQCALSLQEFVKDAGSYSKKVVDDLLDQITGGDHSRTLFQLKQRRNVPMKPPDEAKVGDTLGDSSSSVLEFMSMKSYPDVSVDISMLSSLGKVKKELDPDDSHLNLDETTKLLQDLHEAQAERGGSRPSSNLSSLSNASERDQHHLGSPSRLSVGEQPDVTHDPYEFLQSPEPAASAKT
As to the kind of experiment: HiBiT BRD9 degradation assay in 293T.166 (BRD9-HiBiT) cells. As to conditions: Table 1; 293T.166 cells, 2.0 hours; class symbols; read-out: HiBiT-Degradation 293T.166 BRD9 2.0 hours (DC50). More on the design: endogenously expressing BRD9 with HiBiT fusion tag via CRISPR; host or cells: 293T.166 (BRD9-HiBiT), also expressing LgBiT ectopically. It is filed as cell-based. Summed up: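 293T.166 cells carrying endogenous CRISPR BRD9-HiBiT and expressing LgBiT treated 2 h at 37° C. with compounds, 11-point half-log titration from 10 μM in duplicate. Remaining BRD9 measured as lytic HiBiT luminescence; untreated cells as negative control, no-reagent wells as positive control.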
In the case of `COc1cc(-c2cn(C)c(=O)c3cnccc23)cc(OC)c1CN1CCC(N2CCN(c3ccc(NC4CCC(=O)NC4=O)cc3Cl)CC2)C(F)(F)C1` (stereo not shown) [Compound 188], the DC50 is < 100 nM. Consider `COc1cc(-c2cn(C)c(=O)c3cnccc23)cc(OC)c1CN1CCc2c(CC3CCN(c4ccc(NC5CCC(=O)NC5=O)cc4C(F)(F)F)CC3)cccc2C1` (stereo not shown) [Compound 237], for which the DC50 is < 100 nM.

Turning to `COc1cc(-c2cn(C)c(=O)c3cnccc23)cc(Cl)c1CN1CCC(C2CCN(c3ccc(NC4CCC(=O)NC4=O)cc3Cl)CC2)C(F)(F)C1` (stereo not shown) [Compound 200], the DC50 was < 100 nM. The same measure, in the same setting: then `COc1cc(-c2cn(C)c(=O)c3[nH]ncc23)cc(Cl)c1CN1CCC(C(=O)Nc2ccc(NC3CCC(=O)NC3=O)cc2F)CC1` (stereo not shown) [Compound 169, 1-[[2-chloro-6-methoxy-4-(6-methyl-7-oxo-1H-pyrazolo[3,4-c]pyridin-4-yl)phenyl]methyl]-N-[4-[(2,6-dioxo-3-piperidyl)amino]-2-fluoro-phenyl]piperidine-4-carboxamide], with < 100 nM; and `COc1cc(-c2cn(C)c(=O)c3[nH]ncc23)cc(Cl)c1CN1CCc2c(cccc2CN2CCC(c3ccc(NC4CCC(=O)NC4=O)cc3)C(F)(F)C2)C1` (stereo not shown) [Compound 100], with < 100 nM.

Take `Cc1c(-c2ccc(C(=O)N3CCC(C4CCN(c5ccc(NC6CCC(=O)NC6=O)cc5F)CC4)CC3)c(OC(F)(F)F)c2)cn(C)c(=O)c1C` (single isomer, unassigned) [Compound 214, 3-[3-fluoro-4-[4-[1-[2-(trifluoromethoxy)-4-(1,4,5-trimethyl-6-oxo-3-pyridyl)benzoyl]-4-piperidyl]-1-piperidyl]anilino]piperidine-2,6-dione]: the DC50 is < 100 nM. Still for that read-out and setting: the result for `COc1cc(-c2cn(C)c(=O)c3cnccc23)cc(OC)c1CN1CCC(N2CCN(c3ccc(NC4CCC(=O)NC4=O)cc3C(F)(F)F)CC2)C(F)(F)C1` (stereo not shown) [Compound 185] reads < 100 nM; that for `COc1cc(-c2cn(C)c(=O)c3cnccc23)cc(Cl)c1C(=O)N1CCc2c(CC3CCN(c4ccc(NC5CCC(=O)NC5=O)cc4F)CC3)cccc2C1` (stereo not shown) [Compound 235], < 100 nM; that for `Cn1cc(-c2ccc(C(=O)N3CCC(N4CCN(c5ccc(NC6CCC(=O)NC6=O)cc5F)CC4)C(F)(F)C3)c(OC(F)(F)F)c2)c2ccncc2c1=O` (stereo not shown) [Compound 227], < 100 nM. In the case of `COc1cc(-c2cn(C)c(=O)c3cnccc23)cc(Cl)c1CN1CCC(CCC2CCN(c3ccc(NC4CCC(=O)NC4=O)cc3F)CC2)CC1` (stereo not shown) [Compound 150], the DC50 was < 100 nM.

Turning to `COc1cc(-c2cn(C)c(=O)c3[nH]ncc23)cc(OC)c1CN1CCc2c(CC3CCN(c4ccc(NC5CCC(=O)NC5=O)cc4)CC3)cccc2C1` (stereo not shown) [Compound 104, 3-[4-[4-[[2-[[2,6-dimethoxy-4-(6-methyl-7-oxo-1H-pyrazolo[3,4-c]pyridin-4-yl)phenyl]methyl]-3,4-dihydro-1H-isoquinolin-5-yl]methyl]-1-piperidyl]anilino]piperidine-2,6-dione], the DC50 is < 100 nM. `COc1cc(-c2cn(C)c(=O)c3[nH]ncc23)cc(OC)c1CN1CCC2(CC1)CN(C(=O)CN1CCC(c3ccc(NC4CCC(=O)NC4=O)cc3)CC1)C2` (stereo not shown) [Compound 4]: the DC50 is < 100 nM. On the same count and under the same terms, the result for `COc1cc(-c2cn(C)c(=O)c3cnccc23)cc(Cl)c1C(=O)N1CCC(CCC2CCN(c3ccc(NC4CCC(=O)NC4=O)cc3F)CC2)CC1` (stereo not shown) [Compound 241, 3-[4-[4-[2-[1-[2-chloro-6-methoxy-4-(2-methyl-1-oxo-2,7-naphthyridin-4-yl)benzoyl]-4-piperidyl]ethyl]-1-piperidyl]-3-fluoro-anilino]piperidine-2,6-dione] reads < 100 nM. As for `COc1cc(-c2cn(C)c(=O)c3ccccc23)cc(F)c1CN1CCC(N(C)C(=O)N2CCC(c3ccc(NC4CCC(=O)NC4=O)cc3)CC2)CC1` (stereo not shown) [Compound 119], the DC50 was < 100 nM. Still for that read-out and setting: the result for `COc1cc(-c2cn(C)c(=O)c3cnccc23)cc(Cl)c1CN1CCC(N(C)C(=O)N2CCC(c3ccc(NC4CCC(=O)NC4=O)cc3)CC2)C(F)(F)C1` (stereo not shown) [Compound 125] reads < 100 nM. Consider `CN(C(=O)N1CCC(c2ccc(NC3CCC(=O)NC3=O)cc2F)CC1)C1CCN(C(=O)c2ccc(-c3cn(C)c(=O)c4cc(F)ccc34)cc2OC(F)(F)F)CC1` (stereo not shown) [Compound 141], for which the DC50 is < 100 nM. The same measure, in the same setting: then `COc1cc(-c2cn(C)c(=O)c3cnccc23)cc(Cl)c1C(=O)N1CCC(C2CCN(c3ccc(NC4CCC(=O)NC4=O)cc3F)CC2)CC1` (stereo not shown) [Compound 209], with < 100 nM; and `Cc1c(-c2ccc(C(=O)N3CCC(C4CCN(c5ccc(NC6CCC(=O)NC6=O)cc5F)CC4)CC3)c(OC(F)(F)F)c2)cn(C)c(=O)c1C` (stereo not shown) [Compound 212, 3-[3-fluoro-4-[4-[1-[2-(trifluoromethoxy)-4-(1,4,5-trimethyl-6-oxo-3-pyridyl)benzoyl]-4-piperidyl]-1-piperidyl]anilino]piperidine-2,6-dione], with < 100 nM; and `COc1cc(CN2CCN(C(=O)CN3CCC(c4ccc(NC5CCC(=O)NC5=O)cc4)CC3)CC2)c(OC(C)C)cc1-c1cn(C)c(=O)c2[nH]ncc12` (stereo not shown) [Compound 26], with < 100 nM. With `COc1cc(-c2cn(C)c(=O)c3[nH]ncc23)cc(OC)c1CC1CCN(C(=O)CC2CCN(c3ccc(NC4CCC(=O)NC4=O)cc3C(F)(F)F)CC2)CC1` (stereo not shown) [Compound 160], the DC50 is < 100 nM. Same read-out and setting: the result for `COc1cc(-c2cn(C)c(=O)c3[nH]ncc23)cc(OC)c1CN1CCC(N2CCN(c3ccc(NC4CCC(=O)NC4=O)cc3F)CC2)C(F)(F)C1` (stereo not shown) [Compound 182] reads < 100 nM; that for `Cn1cc(-c2ccc(CN3CCC(N4CCN(c5ccc(NC6CCC(=O)NC6=O)cc5F)CC4)C(F)(F)C3)c(OC(F)(F)F)c2)c2ccncc2c1=O` (stereo not shown) [Compound 193], < 100 nM; that for `COc1cc(-c2cn(C)c(=O)c3cnccc23)cc(OC)c1C(=O)N1CCC(N2CCN(c3ccc(NC4CCC(=O)NC4=O)cc3F)CC2)C(F)(F)C1` (stereo not shown) [Compound 225], < 100 nM. The same measure, in the same setting: then `Cc1c(-c2ccc(C(C)N3CCC(C4CCN(c5ccc(NC6CCC(=O)NC6=O)cc5F)CC4)CC3)c(OC(F)(F)F)c2)cn(C)c(=O)c1C` (stereo not shown) [Compound 91], with < 100 nM. On the same count and under the same terms, then `COc1cc(-c2cn(C)c(=O)c3[nH]ncc23)cc(F)c1CN1CCC(CCC2CCN(c3ccc(NC4CCC(=O)NC4=O)cc3)CC2)CC1` (stereo not shown) [Compound 147, 3-[4-[4-[2-[1-[[2-fluoro-6-methoxy-4-(6-methyl-7-oxo-1H-pyrazolo[3,4-c]pyridin-4-yl)phenyl]methyl]-4-piperidyl]ethyl]-1-piperidyl]anilino]piperidine-2,6-dione], with < 100 nM; and `COc1cc(-c2cn(C)c(=O)c3[nH]ncc23)cc(OC)c1CN1CCc2c(CN3CCC(c4ccc(NC5CCC(=O)NC5=O)cc4)C(F)(F)C3)csc2C1` (stereo not shown) [Compound 103], with < 100 nM; and `COc1cc(-c2cn(C)c(=O)c3[nH]ncc23)cc(Cl)c1CN1CCC(N2CCN(c3ccc(NC4CCC(=O)NC4=O)cc3F)CC2)C(F)(F)C1` (stereo not shown) [Compound 183], with < 100 nM.

Regarding `COc1cc(-c2cn(C)c(=O)c3[nH]ncc23)cc(OC)c1CN1CCN(C(=O)CN2CCC(c3ccc(NC4CCC(=O)NC4=O)cc3F)CC2)CC1` (stereo not shown) [Compound 7], the DC50 is < 100 nM. Consider `COc1cc(-c2cn(C)c(=O)c(C)c2C)cc(OC)c1C(=O)N1CCc2c(CC3CCN(c4ccc(NC5CCC(=O)NC5=O)cc4C(F)(F)F)CC3)cccc2C1` (stereo not shown) [Compound 238], for which the DC50 is < 100 nM.

As for `COc1cc(-c2cn(C)c(=O)c3[nH]ncc23)cc(OC)c1CN1CCN(C(=O)CN2CCC(c3ccc(NC4CCC(=O)NC4=O)cc3)CC2)CC1` (single isomer, unassigned) [Compound 3], the DC50 is < 100 nM.

With `COc1cc(-c2cn(C)c(=O)c3cnccc23)cc(F)c1C(=O)N1CCC(N(C)C(=O)N2CCC(c3ccc(NC4CCC(=O)NC4=O)cc3)CC2)CC1` (stereo not shown) [Compound 132], the DC50 is < 100 nM.

As to `COc1cc(-c2cn(C)c(=O)c3cnccc23)cc(Cl)c1C(=O)N1CCC(N2CCC(c3ccc(NC4CCC(=O)NC4=O)cc3)C(F)(F)C2)CC1` (stereo not shown) [Compound 228], the DC50 is < 100 nM. On the same count and under the same terms, the result for `COc1cc(-c2cn(C)c(=O)c3[nH]ncc23)cc(Cl)c1CN1CCC(F)(CCC2CCN(c3ccc(NC4CCC(=O)NC4=O)cc3F)CC2)CC1` (stereo not shown) [Compound 151, 3-[4-[4-[2-[1-[[2-chloro-6-methoxy-4-(6-methyl-7-oxo-1H-pyrazolo[3,4-c]pyridin-4-yl)phenyl]methyl]-4-fluoro-4-piperidyl]ethyl]-1-piperidyl]-3-fluoro-anilino]piperidine-2,6-dione] reads < 100 nM.

Staying with this test, now noted: Table 2; 293T.166 cells, 2.0 hours; class symbols; read-out: HiBiT-Degradation 293T.166 BRD9 2.0 hours (DC50).
As for `C/C=C/Cn1cc(-c2cc(Cl)c(CN3CCC(N4CCN(c5ccc(NC6CCC(=O)NC6=O)cc5F)CC4)C(F)(F)C3)c(OC)c2)c2ccncc2c1=O` (stereo not shown) [Compound 266], the DC50 was < 100 nM.
